According to ChEMBL document CHEMBL1127853, “Novel synthesis of cyclic amide-linked analogues of angiotensins II and III” (J Med Chem, 1994):
Where a SMILES comes first, the peptide text is derived from it.

Experiments:
[1] = species: Rattus norvegicus; assay: Tested for antagonist activity in rat uterus with respect to human angiotensin II as reference; type: functional; details: read-out: pA2 (converted)
[2] = species: Rattus norvegicus; assay: Tested for agonist activity in rat uterus with respect to human angiotensin II; type: functional

CC[C@H](C)[C@@H]1NC(=O)[C@H](Cc2ccc(O)cc2)NC(=O)[C@H](Cc2ccccc2)NC(=O)[C@@H]2CCCN2C(=O)[C@H](Cc2c[nH]cn2)NC1=O (cyclo(FYIHP)) [listing 1 of 2 here]
Kb [1]: > 10 µM

CC[C@H](C)[C@@H]1NC(=O)[C@H](Cc2ccc(O)cc2)NC(=O)[C@H](Cc2ccccc2)NC(=O)[C@@H]2CCCN2C(=O)[C@H](Cc2c[nH]cn2)NC1=O (cyclo(FYIHP)) [listing 2 of 2 here]
Agonist activity [2]: <0.1%
